ChEMBL document CHEMBL1201862, “PubChem BioAssay data set” (2004)
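Assay format: 96-well plates, 48-hour exposure. GI50 is the concentration that inhibits growth by half.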 Active and inactive are the calls of the source. Cut-off read from the data, not from the text of the source: active = GI50 up to about 1.1 µM and inactive = higher.

Experiments:
Assay in all cases: NCI tumour cell line growth inhibition, 48 h
CAKI-1 = system: CAKI-1
SK-MEL-5 = system: SK-MEL-5
SK-MEL-2 = system: SK-MEL-2
SF-268 = system: SF-268
SNB-75 = system: SNB-75
IGROV-1 = system: IGROV-1
HL-60 = system: HL-60
A549 = system: A549
SR = system: SR
KM12 = system: KM12
BT-549 = system: BT-549
HCC 2998 = system: HCC 2998
HOP-92 = system: HOP-92
SK-MEL-28 = system: SK-MEL-28
HT-29 = system: HT-29
ACHN = system: ACHN
NCI/ADR-RES = system: NCI/ADR-RES
RXF 393 = system: RXF 393
OVCAR-8 = system: OVCAR-8

Measured: GI50

Cc1cc(=O)c2cc(/N=C/c3ccc([N+](=O)[O-])o3)ccc2o1
inactive: CAKI-1 > 100 µM | SK-MEL-5 > 100 µM | SK-MEL-2 > 100 µM | SF-268 88.7 µM | SNB-75 > 100 µM | IGROV-1 > 100 µM | HL-60 57.9 µM | A549 > 100 µM | SR 32.7 µM | KM12 > 100 µM | BT-549 72.6 µM | HCC 2998 > 100 µM | HOP-92 > 100 µM | SK-MEL-28 > 100 µM | HT-29 > 100 µM | ACHN 91.6 µM | NCI/ADR-RES > 100 µM

C[C@@H](CC(O)C(O)C(C)(C)O)C1CCC23CC12CCC1[C@@]2(C)CCC(=O)C(C)(C)C2CC(OC2OC(CO)C(O)C(O)C2O)[C@]13C (some centres not stated)
inactive: CAKI-1 > 10 µM | SK-MEL-5 > 10 µM | SK-MEL-2 > 10 µM | RXF 393 > 10 µM | SF-268 > 10 µM | SNB-75 > 10 µM | IGROV-1 > 10 µM | HL-60 > 10 µM | A549 > 10 µM | OVCAR-8 > 10 µM | KM12 > 10 µM | BT-549 > 10 µM | HCC 2998 > 10 µM | HOP-92 > 10 µM | SK-MEL-28 > 10 µM | HT-29 > 10 µM | ACHN > 10 µM | NCI/ADR-RES > 10 µM

C1=C(c2ccccc2)NC2=N[C@H]3CCCC[C@@H]3N2C1c1ccccc1 (some centres not stated)
inactive: CAKI-1 16.1 µM | SK-MEL-5 14.6 µM | SK-MEL-2 17.8 µM | SF-268 21.5 µM | SNB-75 11.3 µM | IGROV-1 13 µM | HL-60 10.3 µM | SR 14.2 µM | OVCAR-8 13.6 µM | KM12 10.1 µM | BT-549 11.4 µM | HCC 2998 14.4 µM | HOP-92 12.7 µM | SK-MEL-28 14.3 µM | HT-29 3.51 µM | ACHN 13.7 µM | NCI/ADR-RES 12 µM

O=C(O)c1ccccc1/C=N\N=C1NCCN1
inactive: CAKI-1 > 100 µM | SK-MEL-5 > 100 µM | SK-MEL-2 > 100 µM | SF-268 > 100 µM | SNB-75 > 100 µM | IGROV-1 > 100 µM | HL-60 > 100 µM | A549 > 100 µM | SR > 100 µM | OVCAR-8 > 100 µM | KM12 > 100 µM | BT-549 49.9 µM | HCC 2998 > 100 µM | HOP-92 > 100 µM | HT-29 > 100 µM | ACHN > 100 µM | NCI/ADR-RES > 100 µM

Cc1ccc2c(c1)C(=O)c1[nH]c3ccc(F)cc3c1CO2
inactive: CAKI-1 27.5 µM | SK-MEL-5 > 100 µM | SK-MEL-2 12.1 µM | SF-268 48 µM | SNB-75 10.3 µM | IGROV-1 30.3 µM | HL-60 > 100 µM | A549 62.2 µM | SR 49.8 µM | OVCAR-8 15.8 µM | KM12 > 100 µM | BT-549 31.1 µM | HCC 2998 > 100 µM | HOP-92 81.8 µM | SK-MEL-28 97.1 µM | HT-29 23.4 µM | ACHN 28.6 µM | NCI/ADR-RES 58.5 µM

Cc1cc2c(cc1Cl)SC(NNC(=O)c1ccncc1)=NS2(=O)=O
inactive: CAKI-1 > 10 µM | SK-MEL-5 > 10 µM | SK-MEL-2 > 10 µM | RXF 393 > 10 µM | SF-268 > 10 µM | SNB-75 > 10 µM | IGROV-1 > 10 µM | HL-60 > 10 µM | A549 > 10 µM | OVCAR-8 > 10 µM | KM12 > 10 µM | BT-549 > 10 µM | HCC 2998 > 10 µM | SK-MEL-28 > 10 µM | HT-29 > 10 µM | ACHN > 10 µM | NCI/ADR-RES > 10 µM

Cc1nc2cc(C(F)(F)F)ccc2[nH]c1=O
inactive: CAKI-1 > 100 µM | SK-MEL-5 > 100 µM | SK-MEL-2 > 100 µM | RXF 393 > 100 µM | SF-268 > 100 µM | SNB-75 > 100 µM | HL-60 > 100 µM | A549 > 100 µM | OVCAR-8 > 100 µM | KM12 > 100 µM | BT-549 > 100 µM | HCC 2998 > 100 µM | HOP-92 > 100 µM | SK-MEL-28 > 100 µM | HT-29 > 100 µM | ACHN > 100 µM | NCI/ADR-RES > 100 µM

CCCC(=O)Nc1cc([N+](=O)[O-])c([N+](=O)[O-])cc1OC
inactive: CAKI-1 16 µM | SK-MEL-5 16.6 µM | SK-MEL-2 16.5 µM | SF-268 16.3 µM | SNB-75 16.7 µM | IGROV-1 20.9 µM | HL-60 13.1 µM | A549 13.7 µM | SR 5.18 µM | OVCAR-8 16.3 µM | KM12 12.4 µM | BT-549 17.3 µM | SK-MEL-28 17 µM | HT-29 13.3 µM | ACHN 13.5 µM | NCI/ADR-RES 39.5 µM
